Source: ChEMBL document CHEMBL5113529, “Design, Synthesis, and Biological Evaluation of Dual-Target COX-2/CYP51 Inhibitors for the Treatment of Fungal Infectious Diseases” (J Med Chem, 2022)
Converted amounts (≈) assume the structure as drawn.

Experiments:
Aspergillus fumigatus [1] = experiment: Antifungal activity against Aspergillus fumigatus KM8001 assessed as fungal growth inhibition measured after 72 hrs by double dilution method; type: functional
Candida albicans [2] = experiment: Antifungal activity against Candida albicans ATCC SC5314 assessed as fungal growth inhibition measured after 72 hrs by double dilution method; type: functional
Pichia kudriavzevii [3] = experiment: Antifungal activity against Candida krusei ATCC 6258 assessed as fungal growth inhibition measured after 72 hrs by double dilution method; type: functional
Candida tropicalis [4] = experiment: Antifungal activity against Candida tropicalis ATCC 1369 assessed as fungal growth inhibition measured after 72 hrs by double dilution method; type: functional
Cryptococcus neoformans [5] = experiment: Antifungal activity against Cryptococcus neoformans ZKCC 2209 assessed as fungal growth inhibition measured after 72 hrs by double dilution method; type: functional
Candida albicans [6] = experiment: Antifungal activity against Candida albicans ATCC SC5314 assessed as fungal growth inhibition measured after 72 hrs in presence of fluconazole by double dilution method; conditions: ATCC SC5314, 72 h
Candida tropicalis [7] = experiment: microbe, parasite or virus in culture; conditions: ATCC 1369, 72 h
Description: Antifungal activity against Candida tropicalis ATCC 1369 assessed as fungal growth inhibition measured after 72 hrs in presence of fluconazole by double dilution method

Candida albicans [8] = experiment: Antifungal activity against fluconazole- resistant Candida albicans CaR assessed as fungal growth inhibition measured after 72 hrs in presence of fluconazole by double dilution method
Pichia kudriavzevii [9] = experiment: microbe, parasite or virus in culture; conditions: ATCC 6258, 72 h
Description: Antifungal activity against Candida krusei ATCC 6258 assessed as fungal growth inhibition measured after 72 hrs in presence of fluconazole by double dilution method

Candida albicans [10] = experiment: microbe, parasite or virus in culture; conditions: Candida albicans, 632, 72 h
Description: Antifungal activity against fluconazole- resistant Candida albicans 632 assessed as fungal growth inhibition measured after 72 hrs in presence of fluconazole by double dilution method

Candida albicans [11] = experiment: Antifungal activity against fluconazole- resistant Candida albicans 17# assessed as fungal growth inhibition measured after 72 hrs in presence of fluconazole by double dilution method
[12] = target: T1, Prostaglandin G/H synthase 2 (Homo sapiens, UniProt P35354); experiment: Inhibition of COX-2 (unknown origin) using arachidonic acid as substrate preincubated for 10 mins followed by substrate addition and measured after 2 mins by immunoassay
T1 sequence (P35354 whole entry): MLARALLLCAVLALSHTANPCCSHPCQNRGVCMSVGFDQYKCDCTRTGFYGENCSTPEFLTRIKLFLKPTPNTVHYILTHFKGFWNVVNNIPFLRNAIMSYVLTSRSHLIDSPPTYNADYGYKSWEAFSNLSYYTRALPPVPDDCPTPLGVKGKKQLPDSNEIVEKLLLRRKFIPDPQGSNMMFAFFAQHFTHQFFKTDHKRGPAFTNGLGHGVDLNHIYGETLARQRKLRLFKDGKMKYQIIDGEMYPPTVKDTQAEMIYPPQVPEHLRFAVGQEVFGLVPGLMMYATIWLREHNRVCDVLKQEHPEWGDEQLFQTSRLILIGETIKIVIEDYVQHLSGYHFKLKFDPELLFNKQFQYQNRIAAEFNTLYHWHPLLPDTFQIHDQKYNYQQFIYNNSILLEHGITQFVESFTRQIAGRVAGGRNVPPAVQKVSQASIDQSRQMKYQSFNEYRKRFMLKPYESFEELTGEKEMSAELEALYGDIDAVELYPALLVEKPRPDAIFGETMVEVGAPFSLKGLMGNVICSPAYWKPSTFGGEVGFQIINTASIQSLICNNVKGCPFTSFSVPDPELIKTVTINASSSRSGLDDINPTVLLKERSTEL

Candida albicans [13] = experiment: microbe, parasite or virus in culture; conditions: Candida albicans, 901, 72 h
Description: Antifungal activity against fluconazole- resistant Candida albicans 901 assessed as fungal growth inhibition measured after 72 hrs in presence of fluconazole by double dilution method

Candida albicans [14] = experiment: microbe, parasite or virus in culture; conditions: Candida albicans, 904, 72 h
Description: Antifungal activity against fluconazole- resistant Candida albicans 904 assessed as fungal growth inhibition measured after 72 hrs in presence of fluconazole by double dilution method

Cryptococcus neoformans [15] = experiment: microbe, parasite or virus in culture; conditions: ZKCC 2209, 72 h
Description: Antifungal activity against Cryptococcus neoformans ZKCC 2209 assessed as fungal growth inhibition measured after 72 hrs in presence of fluconazole by double dilution method

Aspergillus fumigatus [16] = experiment: Antifungal activity against Aspergillus fumigatus KM8001 assessed as fungal growth inhibition measured after 72 hrs in presence of fluconazole by double dilution method; conditions: KM8001, 72 h
Candida albicans [17] = experiment: Antifungal activity against fluconazole- resistant Candida albicans 17# assessed as fungal growth inhibition measured after 72 hrs by double dilution method; type: functional
Candida albicans [18] = experiment: Antifungal activity against fluconazole -resistant Candida albicans 904 assessed as fungal growth inhibition measured after 72 hrs by double dilution method; type: functional
Candida albicans [19] = experiment: Antifungal activity against fluconazole -resistant Candida albicans CaR assessed as fungal growth inhibition measured after 72 hrs by double dilution method; type: functional
Candida albicans [20] = experiment: Antifungal activity against fluconazole -resistant Candida albicans 632 assessed as fungal growth inhibition measured after 72 hrs by double dilution method; type: functional
Candida albicans [21] = experiment: Antifungal activity against fluconazole -resistant Candida albicans 901 assessed as fungal growth inhibition measured after 72 hrs by double dilution method; type: functional

COC(=O)[C@@H](Cn1ccnc1)NC(=O)[C@@H](C)c1ccc2cc(OC)ccc2c1
MIC50 (Aspergillus fumigatus [1]): > 8 µg/mL
MIC50 (Candida albicans [2]): 0.25 µg/mL (≈ 0.655 µM)
MIC50 (Pichia kudriavzevii [3]): 1 µg/mL (≈ 2.62 µM)
MIC50 (Candida tropicalis [4]): 1 µg/mL (≈ 2.62 µM)
MIC50 (Cryptococcus neoformans [5]): 0.58 µg/mL (≈ 1.52 µM)

COc1ccc2cc([C@H](C)C(=O)N[C@H](Cn3cncn3)C(=O)OC(C)C)ccc2c1
MIC50 (Aspergillus fumigatus [1]): 4 µg/mL (≈ 9.74 µM)
MIC50 (Candida albicans [2]): 0.25 µg/mL (≈ 0.609 µM)
MIC50 (Pichia kudriavzevii [3]): 1 µg/mL (≈ 2.44 µM)
MIC50 (Candida tropicalis [4]): 0.5 µg/mL (≈ 1.22 µM)
MIC50 (Cryptococcus neoformans [5]): 0.5 µg/mL (≈ 1.22 µM)

COC(=O)[C@@H](Cn1ccnc1)NC(=O)[C@@H](C)c1cccc(C(=O)c2ccccc2)c1
MIC50 (Aspergillus fumigatus [1]): 4 µg/mL (≈ 9.87 µM)
MIC50 (Candida albicans [2]): 1 µg/mL (≈ 2.47 µM)
MIC50 (Pichia kudriavzevii [3]): 2 µg/mL (≈ 4.93 µM)
MIC50 (Candida tropicalis [4]): 0.5 µg/mL (≈ 1.23 µM)
MIC50 (Cryptococcus neoformans [5]): 1 µg/mL (≈ 2.47 µM)

C[C@H](C(=O)N[C@H](Cn1ccnc1)C(=O)NC1CCCCC1)c1cccc(C(=O)c2ccccc2)c1
MIC50 (Aspergillus fumigatus [1]): > 8 µg/mL
MIC50 (Candida albicans [2]): 1 µg/mL (≈ 2.12 µM)
MIC50 (Pichia kudriavzevii [3]): 1 µg/mL (≈ 2.12 µM)
MIC50 (Candida tropicalis [4]): 2 µg/mL (≈ 4.23 µM)
MIC50 (Cryptococcus neoformans [5]): 0.5 µg/mL (≈ 1.06 µM)

COC(=O)[C@@H](Cn1ccnc1)NC(=O)[C@@H](C)c1ccc(-c2ccccc2)c(F)c1
MIC50 (Aspergillus fumigatus [1]): > 8 µg/mL
MIC50 (Candida albicans [2]): 1 µg/mL (≈ 2.53 µM)
MIC50 (Pichia kudriavzevii [3]): 0.5 µg/mL (≈ 1.26 µM)
MIC50 (Candida tropicalis [4]): 2 µg/mL (≈ 5.06 µM)
MIC50 (Cryptococcus neoformans [5]): 0.5 µg/mL (≈ 1.26 µM)

C[C@H](C(=O)NC(Cn1cncn1)C(=O)c1ccccc1)c1ccc(-c2ccccc2)c(F)c1 (stereo partly specified)
MIC50 (Aspergillus fumigatus [1]): 2 µg/mL (≈ 4.52 µM)
MIC50 (Candida albicans [2]): 0.5 µg/mL (≈ 1.13 µM)
MIC50 (Pichia kudriavzevii [3]): 1 µg/mL (≈ 2.26 µM)
MIC50 (Candida tropicalis [4]): 0.25 µg/mL (≈ 0.565 µM)
MIC50 (Cryptococcus neoformans [5]): 0.5 µg/mL (≈ 1.13 µM)

CC(C)OC(=O)[C@@H](Cn1ccnc1)NC(=O)[C@@H](C)c1ccc(-c2ccccc2)c(F)c1
MIC50 (Aspergillus fumigatus [1]): > 8 µg/mL
MIC50 (Candida albicans [2]): 0.5 µg/mL (≈ 1.18 µM)
MIC50 (Pichia kudriavzevii [3]): 3 µg/mL (≈ 7.08 µM)
MIC50 (Candida tropicalis [4]): 1 µg/mL (≈ 2.36 µM)
MIC50 (Cryptococcus neoformans [5]): 0.25 µg/mL (≈ 0.59 µM)

CC(C)OC(=O)[C@@H](Cn1cncn1)NC(=O)[C@@H](C)c1ccc(-c2ccccc2)c(F)c1
MIC50 (Aspergillus fumigatus [1]): > 8 µg/mL
MIC50 (Candida albicans [2]): 1 µg/mL (≈ 2.36 µM)
MIC50 (Pichia kudriavzevii [3]): 2 µg/mL (≈ 4.71 µM)
MIC50 (Candida tropicalis [4]): 0.5 µg/mL (≈ 1.18 µM)
MIC50 (Cryptococcus neoformans [5]): 1 µg/mL (≈ 2.36 µM)

COc1ccc2cc([C@H](C)C(=O)NC(Cn3ccnc3)C(=O)c3ccccc3)ccc2c1 (stereo partly specified)
MIC50 (Aspergillus fumigatus [1]): 2 µg/mL (≈ 4.68 µM)
MIC50 (Candida albicans [2]): 0.25 µg/mL (≈ 0.585 µM)
MIC50 (Pichia kudriavzevii [3]): 0.5 µg/mL (≈ 1.17 µM)
MIC50 (Candida tropicalis [4]): 0.5 µg/mL (≈ 1.17 µM)
MIC50 (Cryptococcus neoformans [5]): 0.5 µg/mL (≈ 1.17 µM)

COc1ccc2cc([C@H](C)C(=O)O)ccc2c1 [NAPROXEN]
MIC50 (Candida albicans [6]): 0.25 µg/mL
MIC50 (Candida tropicalis [7]): 0.5 µg/mL (≈ 2.17 µM)
MIC50 (Candida albicans [8]): 2 µg/mL
MIC50 (Pichia kudriavzevii [9]): 1 µg/mL (≈ 4.34 µM)
MIC50 (Candida albicans [10]): 4 µg/mL (≈ 17.4 µM)
MIC50 (Candida albicans [11]): 4 µg/mL
IC50 [12]: 2.39 µM
MIC50 (Candida albicans [13]): 4 µg/mL (≈ 17.4 µM)
MIC50 (Candida albicans [14]): 2 µg/mL (≈ 8.69 µM)
MIC50 (Cryptococcus neoformans [15]): 0.25 µg/mL (≈ 1.09 µM)
MIC50 (Aspergillus fumigatus [16]): 4 µg/mL

CC(C)NC(=O)[C@@H](Cn1ccnc1)NC(=O)[C@@H](C)c1ccc(-c2ccccc2)c(F)c1
MIC50 (Aspergillus fumigatus [1]): > 8 µg/mL
MIC50 (Candida albicans [2]): 0.5 µg/mL (≈ 1.18 µM)
MIC50 (Pichia kudriavzevii [3]): 1 µg/mL (≈ 2.37 µM)
MIC50 (Candida tropicalis [4]): 2 µg/mL (≈ 4.73 µM)
MIC50 (Cryptococcus neoformans [5]): 0.5 µg/mL (≈ 1.18 µM)

CC(=O)N1CCN(c2ccc(OCC3COC(Cn4ccnc4)(c4ccc(Cl)cc4Cl)O3)cc2)CC1 (stereo unspecified) [KETOCONAZOLE]
MIC50 (Candida albicans [17]): 4 µg/mL (≈ 7.53 µM)
MIC50 (Candida albicans [18]): > 8 µg/mL
MIC50 (Aspergillus fumigatus [1]): > 8 µg/mL
MIC50 (Candida albicans [19]): 4 µg/mL (≈ 7.53 µM)
MIC50 (Candida albicans [2]): 0.5 µg/mL (≈ 0.941 µM)
MIC50 (Pichia kudriavzevii [3]): 0.5 µg/mL (≈ 0.941 µM)
MIC50 (Candida tropicalis [4]): 0.5 µg/mL (≈ 0.941 µM)
MIC50 (Candida albicans [20]): > 8 µg/mL
MIC50 (Candida albicans [21]): 4 µg/mL (≈ 7.53 µM)
MIC50 (Cryptococcus neoformans [5]): 1 µg/mL (≈ 1.88 µM)
